Assay results: patent publication US8067442B2, “Heterocyclic antiviral compounds” (Roche Palo Alto LLC, priority 2008, dated 2011)

Legend:
[1] = target: T1, HCV polymerase (NS5B570n-Con1) (Hepatitis C virus genotype 1b, UniProt Q9WMX2); assay: biochemical; design: species or system HCV Con1 strain
T1 construct: a 21 amino acid C-terminal deletion of full-length HCV polymerase; made in house; host or cells: E. coli BL21(DE3) pLysS, plasmid pET17b
Experimental: The enzymatic activity of HCV polymerase (NS5B570n-Con1) was measured as the incorporation of radiolabeled nucleotide monophosphates into acid insoluble RNA products. Unincorporated radiolabeled substrate was removed by filtration and scintillant was added to the washed and dried filter plate containing radiolabeled RNA product. The amount of RNA product generated by NS5B570n-Con1 at the end of the reaction was directly proportional to the amount of light emitted by the scintillant.
The HCV polymerase used in the enzymatic activity assay is a 21 amino acid C-terminal deletion of full-length HCV polymerase derived from HCV Con1 strain, genotype 1b (GenBank accession number AJ242654) (NS5B570n-Con1). The NS5B570n-Con1 was sub-cloned downstream to the T7 promoter of the plasmid expression construct pET17b and transformed into E. coli strain BL21(DE3) pLysS for protein expression. A single colony was used to start an innoculum for a 10 L culture in LB media supplemented with 100 μg/mL ampicillin at 37° C. Protein expression was induced by the addition of 0.25 mM isopropyl-β-D-thiogalactopyranoside (IPTG) when the optical density of the culture at […] was 0.8. Induction of protein expression was carried out at 30° C. for 16 h after which the cells were harvested by centrifugation. NS5B570n-Con1 was purified to homogeneity using a three-column purification protocol including subsequent column chromatography on Ni-NTA, SP-Sepharose HP and Superdex 75 resins.
Enzymatic reactions in the presence of cIRES RNA template (see section [0300]) contained 20 nM cIRES RNA, 20 nM NS5B570n-Con1 enzyme, 0.5 μCi of tritiated UTP (Perkin Elmer catalog no. TRK-412; specific activity: 30 to 60 Ci/mmol), 1 μM each ATP, CTP, and GTP, 40 mM Tris-HCl pH 8.0, 40 mM NaCl, 4 mM DTT (dithiothreitol), 4 mM MgCl2, 5 μl of compound serial diluted in DMSO, and nuclease-free water to a final reaction volume of 50 μl. Enzymatic reactions in the presence of 20 nM cIRES template, 20 nM NS5B570n-Con1 enzyme, 1 μCi of tritiated UTP (Perkin Elmer catalog no. TRK-412; specific activity: 30 to 60 Ci/mmol), 40 mM Tris-HCl pH 8.0, 40 mM NaCl, 4 mM DTT (dithiothreitol), 4 mM MgCl2, 5 μl of compound serial diluted in DMSO, and nuclease-free water to a final reaction volume of 50 μl. Reaction mixtures were assembled in 96-well filter plates (cat #MADVNOB, Millipore Co.) and incubated for 2 h at 30° C. Reactions were stopped by addition of 10% final (v/v) trichloroacetic acid and incubated for 40 min at 4° C. Reactions were filtered, washed with 8 reaction volumes of 10% (v/v) trichloroacetic acetic acid, 4 reaction volumes of 70% (v/v) ethanol, air dried, and 25 μl of scintillant (Microscint 20, Perkin-Elmer) was added to each reaction well.
Two RNA templates can be used to assay compounds described herein. The cIRES RNA template is 377 nucleotide long and consisting of a partial complementary sequence (36 nucleotides) of the core protein, followed by 341 nucleotide of the complementary sequence of the internal ribosome entry site. The poly A RNA template (GE Amersham catalog number 27-4110) was a homopolymeric RNA pre-annealed to a oligo(rU)16 primer at a molar ratio of 3-to-1 (primer-template). The cIRES template was used in the assay unless otherwise noted.
The amount of light emitted from the scintillant was converted to counts per minute (CPM) on a Topcount® plate reader (Perkin-Elmer, Energy Range: Low, Efficiency Mode Normal, Count Time: 1 min, Background Subtract: none, Cross talk reduction: Off).
Data was analyzed in Excel® (Microsoft®) and ActivityBase® (Idbs®). The reaction in the absence of enzyme was used to determine the background signal, which was subtracted from the enzymatic reactions. […] All data was expressed as a percentage of the positive control. The compound concentration at which the enzyme-catalyzed rate of RNA synthesis was reduced by 50% (IC50) was calculated by fitting

| Compound | IC50 [1] | melting point |
| --- | --- | --- |
| CC(C)(C)c1cc(-c2ncc[nH]c2=O)cc2c(C(=O)N3CCCC(CNS(C)(=O)=O)C3)coc12 (stereo not shown) [Compound 102, N-{1-[7-tert-Butyl-5-(3-oxo-3,4-dihydro-pyrazin-2-yl)-benzofuran-3-carbonyl]-piperidin-3-ylmethyl}-methanesulfonamide] | 8 nM | 172 to 174 °C |
| CC(C)(C)c1cc(-c2ccc[nH]c2=O)cc2c(C(=O)N3CCCC(CNS(C)(=O)=O)C3)csc12 (stereo not shown) [Compound 114, N-{1-[7-tert-Butyl-5-(2-oxo-1,2-dihydro-pyridin-3-yl)-benzo[b]thiophene-3-carbonyl]-piperidin-3-ylmethyl}-methanesulfonamide] | 3 nM | 175 to 177 °C |
| CC(C)(C)c1cc(-c2ccc[nH]c2=O)cc2c(C(=O)N3CCC[C@@H]3CNS(C)(=O)=O)csc12 [Compound 116, N-{(R)-1-[7-tert-Butyl-5-(2-oxo-1,2-dihydro-pyridin-3-yl)-benzo[b]thiophene-3-carbonyl]-pyrrolidin-2-ylmethyl}-methanesulfonamide] | 4 nM | 289 to 291 °C |
| CC(C)(C)c1cc(-c2ccc[nH]c2=O)cc2ccoc12 [Compound I-2, 3-(7-tert-Butyl-benzofuran-5-yl)-1H-pyridin-2-one] | 202 nM | 217 to 218 °C |
| CC(C)(C)c1cc(-c2ccc[nH]c2=O)cc2c(CC#N)coc12 [Compound I-5, [7-tert-Butyl-5-(2-oxo-1,2-dihydro-pyridin-3-yl)-benzofuran-3-yl]-acetonitrile] | 330 nM | 231 to 232 °C |
| CC(C)(C)c1cc(-c2ccc[nH]c2=O)cc2c(CC(=O)O)coc12 [Compound I-6, [7-tert-Butyl-5-(2-oxo-1,2-dihydro-pyridin-3-yl)-benzofuran-3-yl]-acetic acid] | 358 nM | 233 to 234 °C |
| CCNC1(C(N)=O)CCN(C(=O)c2coc3c(C(C)(C)C)cc(-c4ccc[nH]c4=O)cc23)CC1 [Compound I-66] | 134 nM | – |
| CN(C)[C@@H]1CCN(C(=O)c2coc3c(C(C)(C)C)cc(-c4ccc[nH]c4=O)cc23)C1 [Compound I-67] | 889 nM | – |
| CC(C)(C)c1cc(-c2ccc[nH]c2=O)cc2c(C(=O)N3CCC(F)(F)CC3)coc12 [Compound I-68] | 597 nM | – |
| CC1(C)CCCN(C(=O)c2coc3c(C(C)(C)C)cc(-c4ccc[nH]c4=O)cc23)C1 [Compound I-69] | 831 nM | – |
| CC(C)(C)c1cc(-c2ccc[nH]c2=O)cc2c(C(=O)N3CCC(CO)C3)coc12 (stereo not shown) [Compound I-70] | 53 nM | – |
| CC(C)(C)c1cc(-c2ccc[nH]c2=O)cc2c(C(=O)N3CCSC3)coc12 [Compound I-71] | 50 nM | – |
| CC(C)(C)c1cc(-c2ccc[nH]c2=O)cc2c(C(=O)N3CC[C@@H](CNS(C)(=O)=O)C3)coc12 [Compound I-73, N-{(R)-1-[7-tert-Butyl-5-(2-oxo-1,2-dihydro-pyridin-3-yl)-benzofuran-3-carbonyl]-pyrrolidin-3-ylmethyl}-methanesulfonamide] | 21 nM | – |
| CC(C)(C)c1cc(-c2cc(F)c[nH]c2=O)cc2c(-c3ccc(CNS(C)(=O)=O)cc3)coc12 [Compound I-74] | 37 nM | – |
| CC(=O)NC[C@H]1CCN(C(=O)c2coc3c(C(C)(C)C)cc(-c4ccc[nH]c4=O)cc23)C1 [Compound I-75] | 197 nM | – |
| CC(C)(C)c1cc(-c2ccc[nH]c2=O)cc2c(C(=O)N3CCCC(CNS(C)(=O)=O)C3)coc12 (stereo not shown) [Compound I-90] | 6 nM | – |
| CC(C)(C)c1cc(-c2ccc[nH]c2=O)cc2c(-c3ccc(CNS(C)(=O)=O)nc3)coc12 [Compound I-93, N-{5-[7-tert-Butyl-5-(2-oxo-1,2-dihydro-pyridin-3-yl)-benzofuran-3-yl]-pyridin-2-ylmethyl}-methanesulfonamide] | 12 nM | – |
| CC(C)(C)c1cc(-c2ccc[nH]c2=O)cc2c(C(=O)N3CCC[C@@H](CNS(C)(=O)=O)C3)coc12 [Compound I-101] | 9 nM | – |
| Cn1cc(C#N)c2cc(-c3ccc[nH]c3=O)cc(C(C)(C)C)c21 [Compound I-110] | 314 nM | – |
